The source of these data is patent US20260085262A1, “ACQ FLUORESCENCE PROBE COMPOSITION, CMC DETERMINATION METHOD, STAIN CLEANING CONCENTRATION DETERMINATION METHOD, DETERGENT DISPENSING CONTROL METHOD, AND DETERGENT DISPENSING CONTROL SYSTEM” (GUANGZHOU BLUEMOON INDUSTRIAL CO., LTD., priority 2024, published 2026).

For data set [1] the following is noted: cited from earlier work; for Flash point / Viscosity / Volatility/Boiling point: solvent; for Solvent solubility in water: classified with reference to solvent data in Pub Chem.
A short description of data set [2]: Solubility classification of probe molecule in solvent. As to conditions: ACQ probe molecule is CUR; label = solvent.
A short description of data set [3]: Hansen solubility parameters (HSP), δ difference and HSP distance Ra.
The nature of data set [4]: cmc determination with probe solutions in NMP, fluorescence spectrophotometer. In kind it is physicochemical. The following applies: Supreme Clean solution (directly prepared); probe dissolved in NMP; range read from fluorescence intensity-concentration curve.
From the text: (§1) In order to determine whether these fluorescence probe molecules can form a stable probe solution, the inventors dissolved these probe molecules in N-methylpyrrolidone (NMP).
(§2) Detergent solutions prepared in a series of concentrations, including the directly prepared Supreme Clean (i.e. Supreme Biotechnology (Clean) liquid laundry detergent) solution and Supreme Brilliant White (i.e. Supreme Biotechnology (Brilliant White) liquid laundry detergent) washing water containing a fluorescent brightener, are tested using these probe solutions formed above. Specifically, an appropriate wavelength is selected according to the determination results of a fluorescence spectrophotometer, and a fluorescence response value-concentration curve is plotted with detergent concentrations on the x-axis and fluorescence intensity on the y-axis. The change section of the curve from a plateau region to a rising region is visually obtained, corresponding to the value range of the measured value of cmc.
Experiment in data set [5]: as above
The data set is classed as physicochemical. As to conditions: Supreme Brilliant White washing water with fluorescent brightener; probe dissolved in NMP.
From the text: as §1, §2

Data set [6] is described as follows: cmc by surface tension method. The data set is classed as physicochemical. As to conditions: NMP without probe. From the text:
Based on the above speculation, the inventors also observed the change in the cmc value at different addition amounts of the NMP solvent (without the probe) used in the CUR-NMP probe solution using the surface tension method. When the addition amount of NMP is less than 1000, the cmc value determined is affected to some extent, but the effect is small. When the addition amount of NMP is less than 400, the cmc value determined is basically not affected, and the result is basically consistent with the result determined by fluorescence spectrometry and conforms to the inference.
FIG. 5 is a graph showing the curves obtained by determining the cmc of the above various brands of detergent solutions using the surface tension method.

A short description of data set [7]: cmc by fluorescence probe method, customized photoelectric detector (CD detector). In kind it is physicochemical. As to conditions: aqueous solution of Supreme Biotechnology (Bright White) laundry detergent; label = solvent for probe. As to the method:
Here, the liquid to be tested is Supreme Biotechnology (Brilliant White) detergent solution (ZZLB), and the detector is a customized photoelectric detector (CD detector).
In addition, due to the use of the CUR-NMP single organic solvent composition system, the solvent addition amount in Table 6 can be considered equivalent to the addition amount of the probe solution. The cmc value is determined using the fitted line intersection method, i.e., according to the determination results of a fluorescence spectrophotometer, an appropriate wavelength is selected within the corresponding fluorescence emission peak range, and a fluorescence response value-concentration curve is plotted with detergent concentrations on the x-axis and fluorescence intensity on the y-axis. The plateau region and the rising region of the curve are fitted by linear regression, respectively, and the intersection point of two fitted lines is obtained. The surfactant concentration on the x-axis corresponding to the intersection point is the cmc concentration (measured value).
The fluorescence photoelectric detector used in the present invention includes any of the following: • 1) including excitation filter (430 nm), dichroic mirror, and emission filter (495 nm), light source: peak wavelength of 430 nm, waveband of 420 to 440 nm, working current: 0.02 A, working voltage: 5V, the acceptable wavelength range of detector of at least 480-510 nm; • 2) including excitation filter (550 nm), dichroic mirror, and emission filter (638 nm), light source: peak wavelength of 550 nm, waveband of 540 to 560 nm, working current: 0.02 A, working voltage: 5V, the acceptable wavelength range of detector of at least 620-650 nm.
Referring to Examples 1 and 3, Supreme Biotechnology (Brilliant White) detergent solution was prepared. […] Determination was carried out using a CD detector in the above two cases.

A short description of data set [8]: cmc of detergent solution by fluorescence probe method, fluorescence spectrophotometer (Example 1). The data set is classed as physicochemical. The following applies: aqueous solution of Supreme Biotechnology (Bright White) laundry detergent.
The conditions of data set [9]: document value; cited from earlier work.
[10] abbreviates: HSP distance between solvent and curcumin (CUR).
Setting [11] is: total δ of solvent minus total δ of curcumin (CUR).
Setting [12] is: HSP distance between solvent and rhodamine B.
Where [13] appears, read: total δ of solvent minus total δ of rhodamine B.

Regarding `OCCCCCO` [1,5-Pentanediol], in data set [1], the Flash point is 129 °C, the Viscosity was 128 mPa · s and the Volatility/Boiling point is 242 °C. In addition, the “Probe solubility in solvent” value in data set [2] is reported as “Soluble (0.01-0.1% is soluble)”. In addition, in data set [3] (setting [10]), the Ra was 6.580 (MPa)^1/2. Besides, in [3] (setting [11]), the δ difference is recorded as 4.118 (MPa)^1/2.

Consider `Cc1cc(=O)oc2c3c4c(cc12)CCCN4CCC3` [C480, coumarin 480], for which the cmc value range lay in the range of 0.05 to 0.2 g/L in [4] and 0.3 to 1 g/L in data set [5].

`COc1cc(/C=C/C(=O)CC(=O)/C=C/c2ccc(O)c(OC)c2)ccc1O` [CUR, curcumin]: the cmc value range in [4] was in the range of 0.05 to 0.1 g/L; in data set [5] it was 0.2 to 0.3 g/L.

As for `CN1CCCC1=O` [N-methylpyrrolidone (NMP), N-methylpyrrolidone], the cmc in data set [6] (solvent content 0 (v organic solvent/v water)) was found to be 0.067 g/L; in [6] (solvent content 0.4%), 0.076 g/L; in data set [6] (solvent content 1%), 0.073 g/L; in [6] (solvent content 2%), 0.101 g/L; in [6] (solvent content 4%), 0.082 g/L; in data set [6] (solvent content 10%), 0.131 g/L. Further, the cmc in data set [6] (solvent content 20%) was determined as 0.22 g/L. Further, the “cmc value, CUR, By Customized fluorescence photoelectric detector” value in data set [7] turned out to be 0.116 g/L. Besides, in data set [7], the “cmc value, NR, By Customized fluorescence photoelectric detector” value was 0.066 g/L. In addition, the “cmc value, NR, By Fluorescence spectrophotometer” value in data set [8] (label = solvent for probe) was determined as 0.088 g/L. The “cmc value, CUR, By Fluorescence spectrophotometer” value in data set [8] (label = solvent for probe (auxiliary agent)) is given as 0.100 g/L. Further, in data set [9], the “Dispersion δD” value is listed as 18 (MPa)^1/2. Besides, the “Hydrogen bonding δH” value in [9] is on record as 7.2 (MPa)^1/2. Further, the “Polarity δH” value in data set [9] is recorded as 12.3 (MPa)^1/2. The “Total δ” value in data set [9] is 22.959 (MPa)^1/2. The Flash point in data set [1] is 85 °C. For the same molecule, the Viscosity in data set [1] is reported as 1.65 mPa · s. In addition, the Volatility/Boiling point in data set [1] is 204 °C. The Ra in data set [3] (setting [10]) is on record as 10.950 (MPa)^1/2; in data set [3] (HSP distance between solvent and pyrene), 14.343 (MPa)^1/2; in data set [3] (setting [12]), 12.708 (MPa)^1/2. The δ difference in data set [3] (setting [11]) was 0.380 (MPa)^1/2; in data set [3] (total δ of solvent minus total δ of pyrene), 0.050 (MPa)^1/2; in data set [3] (setting [13]), −7.494 (MPa)^1/2.

As to `c1ccc(Nc2cccc3ccccc23)cc1` [NPN, N-phenyl-1-naphthylamine], in [4], the cmc value range is 0.02 to 0.05 g/L.

In the case of `CCN(CC)c1ccc2nc3c4ccccc4c(=O)cc-3oc2c1` [NR, Nile red], the cmc value range in data set [4] is 0.05 to 0.1 g/L; in data set [5] it was 0.2 to 0.3 g/L.

In the case of `c1cc2ccc3cccc4ccc(c1)c2c34` [PYR, pyrene, reference compound], in data set [4], the cmc value range was in the range of 0.05 to 0.2 g/L. The cmc value range in data set [5] lay within 0.03 to 0.1 g/L. In data set [9], the “Dispersion δD” value is recorded as 22.5 (MPa)^1/2, the “Hydrogen bonding δH” value is on record as 4 (MPa)^1/2, the “Polarity δH” value is on record as 1.6 (MPa)^1/2 and the “Total δ” value was 22.909 (MPa)^1/2.

Consider `CCN(CC)c1ccc2c(-c3ccccc3C(=O)O)c3ccc(=[N+](CC)CC)cc-3oc2c1` [RhB, rhodamine B, reference compound], for which the cmc value range in [4] was 0.1 to 0.15 g/L. Besides, the cmc value range in data set [5] lay within 0.3 to 1 g/L. Besides, in data set [9], the “Dispersion δD” value is 16.7 (MPa)^1/2, the “Hydrogen bonding δH” value is reported as 18.5 (MPa)^1/2, the “Polarity δH” value is 17.5 (MPa)^1/2 and the “Total δ” value was 30.453 (MPa)^1/2.

As for `CCCCCC` [n-Hexane], in data set [1], the “Solvent solubility in water” value is recorded as “Insoluble” and the Volatility/Boiling point is 69 °C. Moreover, in [2], the “Probe solubility in solvent” value was “Insoluble”. Also, the Ra in data set [3] (setting [10]) is recorded as 15.204 (MPa)^1/2. The δ difference in data set [3] (setting [11]) is reported as −7.679 (MPa)^1/2.

As for `CCCCCCCCO` [n-Octanol], in [9], the “Dispersion δD” value is recorded as 16 (MPa)^1/2, the “Hydrogen bonding δH” value is 11.9 (MPa)^1/2, the “Polarity δH” value is 5 (MPa)^1/2 and the “Total δ” value is listed as 20.557 (MPa)^1/2. Also, in data set [1], the “Solvent solubility in water” value was “Insoluble”, the Flash point is 81 °C, the Viscosity was 8.93 mPa · s and the Volatility/Boiling point is 195 °C. In addition, in data set [2], the “Probe solubility in solvent” value is on record as “Soluble (0.01-0.1% is soluble)”. Also, in [3] (setting [10]), the Ra is listed as 3.753 (MPa)^1/2. Besides, the Ra in data set [3] (setting [12]) was 14.205 (MPa)^1/2. The δ difference in [3] (setting [11]) is −2.022 (MPa)^1/2. In [3] (setting [13]), the δ difference is on record as −9.896 (MPa)^1/2.
